Converted amounts (≈) assume the structure as drawn.
Columns and labels:
[1] = system: Trypanosoma cruzi (Tulahuan-LACZ amstigotes in PEM); assay: In vitro drug activity assay, protozoon A; format: cell-based; details: amastigotes in murine peritoneal macrophages, 3 days
Method: In vitro activity of selected compounds of the invention against different protozoa was assessed as follows.
Murine (CD1) peritoneal macrophages were harvested 24 hours after starch induction and dispensed into 96-well plates at a concentration of 4×10^5 mL. After 24 hours, the cells were infected with Trypanosoma cruzi Tulahuan LAC-Z amastigotes (grown and cultured according to Buckner et al., Infection and Immunity 1999, 67(1): 403-409). 24 hours later, the infected cells were exposed to the test compounds (compounds of the invention as well as known prior art compounds) for 3 days and 50 μL of 500 μM CPRG-1% Nonidet P-40 was added to each well. The plates were read after 2 to 5 hours at 570 nm (Buckner et al., Antimicrobial Agents and Chemotherapy 1996, 40(11): 2592-2597). ED50 values were calculated with Msxlfit (IDBS).
The following protozoa were assessed: • A) Trypanosoma cruzi (Tulahuan-LACZ amstigotes in PEM, Lorente S O et al., Antimicrobial agents and chemotherapy 2004, 48(8): 2937-2950; Buckner et al., Infection and Immunity 1999, 67(1): 403-409; Buckner et al., Antimicrobial Agents and Chemotherapy 1996, 40(11): 2592-2597) • B) Trypanosoma brucei rhodesiense (strain STIB900, Lorente S O et al., Antimicrobial agents and chemotherapy 2004, 48(8): 2937-2950; Habtemariam S, BMC Pharmacology 2003, 3:6) • C) Plasmodium falciparum (strain K1, Korsinczky M et al., Antimicrobial agents and chemotherapy 2000, 44(8): 2100-2108; Thaitong S and Beale G H, Trans. R. Soc. Trop. Med. Hyg. 1981, 75: 271-273; Trager W and Jensen J B, Science 1976, 193: 673-675) • D) Plasmodium faiciparum (strain 3D7, Mu et al., PLoS Biology 2005, 3(10): e335)

[2] = system: Streptococcus pneumoniae DSM 11967 (ATCC 49619); assay: Anti-bacterial bouillon microdilution assay (MIC), bacterium B; format: cell-based; details: Streptococcus pneumoniae DSM 11967, 24 h
Method: (§1) Selected compounds of the invention were tested in a bouillon microdilution assay method according to the DIN 58940 (www.din.de) guidelines for determination of susceptibility of bacterial strains with regard to cell growth inhibition. The assay method quantifies bacterial cell growth which corresponds to the turbidity of the liquid culture medium by photometric measurement carried out at 595 nm.
(§2) The method of MIC determination was performed according to DIN 58940-5. The volumina were adapted according to the microdilution method as described in DIN 58940-7 guideline.
(§3) Dependent on water solubility, compounds of the invention were dissolved either in water or ethanol in a concentration of 10 mg/ml. Subsequently, the stock was further diluted in water to a concentration of 512 μg/ml. The following serial dilutions (factor 2) were performed in water resulting in the following […] testing concentrations: 256 μg/ml, 128 μg/ml, 64 μg/ml, 32 μg/ml, 16 μg/ml, 8 μg/ml, 4 μg/ml, 2 μg/ml, 1 μg/ml, 0.5 μg/ml, 0.25 μg/ml and 0.125 μg/ml. Diluted compounds of the invention were transferred in 100 μl volume to the microtiter plate wells.
(§4) Pre-cultures of bacteria were grown in appropriate liquid media (refer to ATCC webpage, www.atcc.org) and afterwards were inoculated in corresponding liquid medium. 100 μl of the inoculums [adjusted to an amount of app. 1×10^6 microorganisms per ml (range of 10^5-10^8 microorganisms per ml)] were added to each of the testing compound concentrations and cultivated under the appropriate conditions.
(§5) Before and after incubation, bacterial growth was determined by photometric analysis against a positive control containing growing bacteria without compound and a sterile/negative control containing only the medium.

[3] = system: Streptococcus pneumoniae DSM 20566 (ATCC 33400); assay: Anti-bacterial bouillon microdilution assay (MIC), bacterium A; format: cell-based; details: Streptococcus pneumoniae DSM 20566, 24 h
Method: as §1, §2, §3, §4, §5

[4] = system: Moraxella catarrhalis DMS 11994 (ATCC 43617); assay: Anti-bacterial bouillon microdilution assay (MIC), bacterium D; format: cell-based
Outline: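 Broth microdilution MIC per DIN 58940-5/-7. Twofold compound dilutions in water spanned 256 to 0.125 μg/ml in the test concentration series, with inocula of about 1×10^6 organisms/ml in strain-appropriate media. Growth was read as turbidity at 595 nm before and after incubation, against growth and sterile controls.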

[5] = system: SKOV-3 (human ovary adenocarcinoma) cells; assay: XTT cytotoxicity assay, SKOV-3 cells; format: cell-based
Outline: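 Exponentially growing SKOV-3 cells recovered 24 h after plating, then received freshly diluted compounds for 2 days of continuous exposure. Viability was read by formazan formation after 3 h with XTT-PMS at 37° C., 5% CO2. IC50 came from inhibition curves.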

[6] = system: PC3, RKOp21 and SKOV-3 cell lines; assay: XTT cytotoxicity assay, mean over all three cell lines; format: cell-based, human; details: mean value over all three cell lines
Outline: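 Cells had 2 days of continuous compound exposure, then 3 h with XTT-PMS at 37 °C, 5% CO2 to form formazan from living cells. The value is % inhibition of cell growth, averaged over PC3, RKOp21 and SKOV-3.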

Row | Structure (SMILES) | ED50 (μg/mL), protozoon A [1] [µg/mL] | MIC, bacterium B [2] [µg/mL] | MIC, bacterium A [3] [µg/mL] | MIC, bacterium D ([4]; 24 h) [µg/mL] | SKOV-3 % INH [100 μM] ([5]; second set of experiments) [%] | Mean % INH [6] [%] | MIC [2] [µg/mL] | MIC [3] [µg/mL] | MIC ([4]; ATCC43617, 24 h) [µg/mL] | inhibition at 100 µM ([5]; Homo sapiens, SK-OV-3, second set of experiments, read-out: SKOV-3 % INH [100 μM]) [%]
1 | CCCCCCCCCCCCCCCCOP(=O)([O-])OCC[N+]1(C)CCCCC1 [Compound 2, Phosphoric acid hexadecyl ester 2-(1-methyl-piperidin-1-yl)-ethyl ester] | 0.50 (≈ 1.12 µM) | 8 (≈ 17.9 µM) | 8 (≈ 17.9 µM) | 4 (≈ 8.94 µM) | 19.5 | 36.1 | – | – | – | –
2 | CCCCCCCCCCCCCCCCOP(=O)([O-])OCC[N+](C)(C)C [miltefosine, hexadecylphosphocholine, reference compound] | 0.63 (≈ 1.55 µM) | – | – | – | – | 68.7 | 128 (≈ 314 µM) | 128 (≈ 314 µM) | 16 (≈ 39.3 µM) | 74.7

Reference: US20070167408A1, “NOVEL ALKYL PHOSPHOLIPID DERIVATIVES WITH REDUCED CYTOTOXICITY AND USES THEREOF” (ZENTARIS GmbH, priority 2005, published 2007)
